In one series the test system is human myoblasts. Put plainly: In vitro selection of MGMT^P140K-2A-GFP gene-targeted myoblasts with BG/BCNU. In kind it is cell-based. From the text:
Consequently, we next verified whether expression from the integrated MGMT^P140K gene, along with the eGFP reporter gene to facilitate tracking of transduced cells, was sufficient to confer myoblasts protection against treatments with BG and BCNU (FIG. 4A). Using IDLV to deliver a MGMT^P140K-eGFP template DNA flanked by CCR5 homology arms, we obtained 40-50% gene addition in myoblasts in the absence of drug selection (FIG. 4B and C). However, to fully evaluate the selection potential of the BG/BCNU combination, we thought it would be more appropriate to work with a population containing a much lower level of gene addition. As such, we generated two populations of gene-targeted myoblasts containing either 3% or 35% of cells expressing the MGMT^P140K-2A-GFP gene using non-transduced cells for dilution. Both populations were exposed to 20 μM BG for one hour followed by increasing doses of BCNU (10, 25, 50 and 100 μM) for two hours (FIG. 4D).
Myoblasts were then allowed to recover for one week after which the proportion of eGFP positive cells was analyzed by flow cytometry, a procedure defined as one cycle of drug selection. […] After three cycles of selection using the same concentration of BCNU, up to 45% of the myoblasts were positive for eGFP, representing a 15-fold enrichment over the initial population. […] In comparison, when starting with a population containing already 35% of gene-targeted myoblasts, over 85% of the cells were expressing eGFP after only one cycle of selection using 50 μM of BCNU (FIG. 4D).
Four weeks post-transduction, gene modified myoblasts containing the MGMT^P140K-2A-GFP cassette inserted at the endogenous CCR5 locus were treated with 50 μM O6BG for two hours followed by increasing doses (range from 10-100 μM) of BCNU for one hour. Cells were then washed with PBS and allowed to proliferate in the presence of […] for seven days before being analyzed by FACS. Where indicated, this procedure was repeated up to two more times. Cells were maintained in the presence of O6BG during their post-treatment expansion to inactivate the endogenous MGMT gene.

For series [1], the system named is CCR5-specific ZFN pair (exon 3) (artificial). Briefly: cell_activity. As to conditions: Cel-1 assay in human myoblasts; cleavage over 30%.
Setting [2] is: starting population 3%, three cycles, 100 μM BCNU.

Where only a bound is given, the exact number is not on record here.

`O=NN(CCCl)C(=O)NCCCl` [BCNU, 1,3-bis(2-chloroethyl)-N-nitrosourea]: the “effect of additional cycle of selection” value in the series with human myoblasts (starting population 3%, beyond three cycles) is “did not allow us to further increase the proportion of eGFP positive cells”. Also, the “proportion of MGMT^P140K-2A-GFP expressing cells” value in the series on human myoblasts (starting population 3%, one cycle, 20 μM BG then 100 μM BCNU) is on record as 11%. Moreover, in the series on human myoblasts (setting [2]), the “enrichment over the initial population” value is 15 fold and the “proportion of myoblasts positive for eGFP” value is “up to 45%”. Moreover, the “proportion of cells expressing eGFP” value in the series with human myoblasts (starting population 35%, one cycle, 50 μM BCNU) is given as “over 85%”.
Turning to CCR5 locus exon 3 ZFN target, the activity in series [1] was over 30%.

The record behind these values is patent US20140140969A1, “METHODS AND COMPOSITIONS FOR MUSCULAR DYSTROPHIES” (Sangamo BioSciences, Inc., priority 2012, published 2014).
